Measured values as given in ChEMBL document CHEMBL4715697, “Synthesis and biological activity of benzamide DNA minor groove binders” (2016).

Legend:
Format in all cases: functional
[1] = system: COLO 205; test: Growth inhibition of human COLO 205 cells assessed as cell growth at 0.1 uM incubated for 48 hrs by sulforhodamine B assay relative to control; conditions: read-out: Activity
[2] = system: A549; test: Growth inhibition of human A549/ATCC cells assessed as cell growth at 0.1 uM incubated for 48 hrs by sulforhodamine B assay relative to control; conditions: read-out: Activity
[3] = system: ACHN; test: Growth inhibition of human ACHN cells assessed as cell growth at 0.01 uM incubated for 48 hrs by sulforhodamine B assay relative to control; conditions: read-out: Activity
[4] = system: RPMI-8226; test: Growth inhibition of human RPMI-8226 cells assessed as cell growth at 0.1 uM incubated for 48 hrs by sulforhodamine B assay relative to control; conditions: read-out: Activity
[5] = system: HCT-15; test: Growth inhibition of human HCT-15 cells assessed as cell growth at 0.01 uM incubated for 48 hrs by sulforhodamine B assay relative to control; conditions: read-out: Activity
[6] = system: SF-295; test: Growth inhibition of human SF-295 cells assessed as cell growth at 0.1 uM incubated for 48 hrs by sulforhodamine B assay relative to control; conditions: read-out: Activity
[7] = system: SF-268; test: Growth inhibition of human SF-268 cells assessed as cell growth at 0.01 uM incubated for 48 hrs by sulforhodamine B assay relative to control; conditions: read-out: Activity
[8] = system: IGROV-1; test: Growth inhibition of human IGROV-1 cells assessed as cell growth at 0.01 uM incubated for 48 hrs by sulforhodamine B assay relative to control; conditions: read-out: Activity
[9] = system: UACC-257; test: Growth inhibition of human UACC-257 cells assessed as cell growth at 0.1 uM incubated for 48 hrs by sulforhodamine B assay relative to control; conditions: read-out: Activity
[10] = system: Hs-578T; test: Growth inhibition of human Hs-578T cells assessed as cell growth at 1 uM incubated for 48 hrs by sulforhodamine B assay relative to control; conditions: read-out: Activity
[11] = system: HL-60(TB); test: Growth inhibition of human HL-60(TB) cells incubated for 48 hrs by sulforhodamine B assay
[12] = system: RPMI-8226; test: Growth inhibition of human RPMI-8226 cells assessed as cell growth at 100 uM incubated for 48 hrs by sulforhodamine B assay relative to control; conditions: read-out: Activity
[13] = system: K562; test: Growth inhibition of human K562 cells assessed as cell growth at 100 uM incubated for 48 hrs by sulforhodamine B assay relative to control; conditions: read-out: Activity
[14] = system: Malme-3M; test: Growth inhibition of human Malme-3M cells assessed as cell growth at 0.1 uM incubated for 48 hrs by sulforhodamine B assay relative to control; conditions: read-out: Activity
[15] = system: U-251; test: Growth inhibition of human U-251 cells incubated for 48 hrs by sulforhodamine B assay
[16] = system: HT-29; test: Growth inhibition of human HT-29 cells assessed as cell growth at 1 uM incubated for 48 hrs by sulforhodamine B assay relative to control; conditions: read-out: Activity
[17] = system: CCRF-CEM; test: Growth inhibition of human CCRF-CEM cells assessed as cell growth at 1 uM incubated for 48 hrs by sulforhodamine B assay relative to control; conditions: read-out: Activity
[18] = system: SK-MEL-2; test: Growth inhibition of human SK-MEL-2 cells assessed as cell growth at 0.1 uM incubated for 48 hrs by sulforhodamine B assay relative to control; conditions: read-out: Activity
[19] = system: SR; test: Growth inhibition of human SR cells assessed as cell growth at 0.01 uM incubated for 48 hrs by sulforhodamine B assay relative to control; conditions: read-out: Activity
[20] = system: OVCAR-5; test: Growth inhibition of human OVCAR-5 cells incubated for 48 hrs by sulforhodamine B assay
[21] = system: SR; test: Growth inhibition of human SR cells incubated for 48 hrs by sulforhodamine B assay
[22] = system: OVCAR-5; test: Growth inhibition of human OVCAR-5 cells assessed as cell growth at 1 uM incubated for 48 hrs by sulforhodamine B assay relative to control; conditions: read-out: Activity
[23] = system: EKVX; test: Growth inhibition of human EKVX cells assessed as cell growth at 1 uM incubated for 48 hrs by sulforhodamine B assay relative to control; conditions: read-out: Activity
[24] = system: MCF7; test: Growth inhibition of human MCF7 cells assessed as cell growth at 100 uM incubated for 48 hrs by sulforhodamine B assay relative to control; conditions: read-out: Activity
[25] = system: K562; test: Growth inhibition of human K562 cells assessed as cell growth at 0.01 uM incubated for 48 hrs by sulforhodamine B assay relative to control; conditions: read-out: Activity
[26] = system: OVCAR-5; test: Growth inhibition of human OVCAR-5 cells assessed as cell growth at 0.01 uM incubated for 48 hrs by sulforhodamine B assay relative to control; conditions: read-out: Activity
[27] = system: HCT-15; test: Growth inhibition of human HCT-15 cells incubated for 48 hrs by sulforhodamine B assay
[28] = system: SN12C; test: Growth inhibition of human SN12C cells assessed as cell growth at 1 uM incubated for 48 hrs by sulforhodamine B assay relative to control; conditions: read-out: Activity
[29] = system: BT-549; test: Growth inhibition of human BT-549 cells assessed as cell growth at 1 uM incubated for 48 hrs by sulforhodamine B assay relative to control; conditions: read-out: Activity
[30] = system: HOP-62; test: Growth inhibition of human HOP-62 cells assessed as cell growth at 100 uM incubated for 48 hrs by sulforhodamine B assay relative to control; conditions: read-out: Activity
[31] = system: IGROV-1; test: Growth inhibition of human IGROV-1 cells assessed as cell growth at 0.1 uM incubated for 48 hrs by sulforhodamine B assay relative to control; conditions: read-out: Activity
[32] = system: LOX IMVI; test: Growth inhibition of human LOX IMVI cells assessed as cell growth at 0.01 uM incubated for 48 hrs by sulforhodamine B assay relative to control; conditions: read-out: Activity
[33] = system: KM12; test: Growth inhibition of human KM12 cells incubated for 48 hrs by sulforhodamine B assay
[34] = system: SNB-19; test: Growth inhibition of human SNB-19 cells incubated for 48 hrs by sulforhodamine B assay
[35] = system: SNB-19; test: Growth inhibition of human SNB-19 cells assessed as cell growth at 0.1 uM incubated for 48 hrs by sulforhodamine B assay relative to control; conditions: read-out: Activity
[36] = read-out: LC50 (the source's name)
[37] = read-out: pLC50 (the source's name) (converted)

CC(=O)Nc1cc(CO[Si](C)(C)C(C)(C)C)cc(NC(=O)c2ccc(C(=O)Nc3cccc(NC(=O)CCCN(C)C)c3)cc2)c1
94%: growth at 100 µM [13]
32%: growth at 100 µM [24]
98%: growth at 1 µM [17]
117%: growth at 1 µM [10]
90%: growth at 0.1 µM [9]
100%: growth at 0.1 µM [1] | growth at 0.01 µM [3] | growth at 1 µM [28]
103%: growth at 0.1 µM [31]
102%: growth at 0.1 µM [18]
93%: growth at 0.01 µM [5] | growth at 0.01 µM [25] | growth at 0.01 µM [26]
87%: growth at 100 µM [30]
113%: growth at 1 µM [16]
> 75 µM: GI50 ([11]; read-out: GI50) | LC50 ([11]; read-out: LC50) | TGI ([11]; read-out: TGI) | GI50 ([15]; read-out: GI50) | CC50 [15, 36] | TGI ([15]; read-out: TGI) | GI50 ([20]; read-out: GI50) | LC50 ([20]; read-out: LC50) | TGI ([20]; read-out: TGI) | GI50 ([21]; read-out: GI50) | CC50 [21, 36] | TGI ([21]; read-out: TGI) | GI50 ([27]; read-out: GI50) | CC50 [27, 36] | TGI ([27]; read-out: TGI) | GI50 ([33]; read-out: GI50) | CC50 [33, 36] | TGI ([33]; read-out: TGI) | GI50 ([34]; read-out: GI50) | CC50 [34, 36] | TGI ([34]; read-out: TGI)
123%: growth at 0.1 µM [6]
92%: growth at 0.1 µM [14]
101%: growth at 0.1 µM [4] | growth at 0.01 µM [32]
96%: growth at 0.1 µM [35]
99%: growth at 0.1 µM [2] | growth at 0.01 µM [7] | growth at 0.01 µM [8] | growth at 1 µM [29]
104%: growth at 100 µM [12]
106%: growth at 0.01 µM [19]
89%: growth at 1 µM [22] | growth at 1 µM [23]
> 75.9 µM: GI50 ([11]; read-out: pGI50 (converted)) | LC50 ([11]; read-out: pLC50 (converted)) | TGI ([11]; read-out: pTGI) | GI50 ([15]; read-out: pGI50 (converted)) | CC50 [15, 37] | TGI ([15]; read-out: pTGI) | GI50 ([20]; read-out: pGI50 (converted)) | LC50 ([20]; read-out: pLC50 (converted)) | TGI ([20]; read-out: pTGI) | GI50 ([21]; read-out: pGI50 (converted)) | CC50 [21, 37] | TGI ([21]; read-out: pTGI) | GI50 ([27]; read-out: pGI50 (converted)) | CC50 [27, 37] | TGI ([27]; read-out: pTGI) | GI50 ([33]; read-out: pGI50 (converted)) | CC50 [33, 37] | TGI ([33]; read-out: pTGI) | GI50 ([34]; read-out: pGI50 (converted)) | CC50 [34, 37] | TGI ([34]; read-out: pTGI)
